Test results published in patent US4156017A, “Pesticides” (Schering Aktiengesellschaft, priority 1977, dated 1979).
Read-outs that look alike come from different tables or passages of the source.

What was measured:
[1] = system: Egyptian cotton moth eggs; assay: prevention of hatching of Egyptian cotton moth eggs (immersion, evaluation four days after treatment); format: in vivo, Spodoptera littoratis (Egyptian cotton moth); settings: 96 h
Description: The compounds to be used according to the invention were aqueous solutions of the salts or aqueous emulsions of the baes formulated as emulsion concentrates at the desired concentration. The same procedure was followed with the comparison agents trans-2-phenylcyclopropyl aminosulfate and 1-isonicotinyl-2-isopropyl hydrazine phosphate; in the case of isonicotinic acid-2-[2-(benzylcarbamoyl)-ethyl]hydrazide, the compound was dissolved in acetone and diluted with water to the desired concentration.
The criterion for evaluation of the action was the percentual prevention of batching in comparison with untreated eggs.

cabbage moth eggs = assay: prevention of hatching of cabbage moth eggs (immersion, evaluation four days after treatment); format: in vivo; settings: Mamestra brassicae, 96 h; for inhibition at 1 % / inhibition at 0.1 %: read-out: prevention of hatching
Description: The compounds to be used according to the invention were used as aqueous solutions of the salts or as aqueous emulsions of the bases formulated as emulsion concentrates at the desired concentration. The same procedure was followed with the comparison agents trans-2-phenylcyclopropyl aminosulfate and 1-isonicotinyl-2-isopropyl hydrazine phosphate; in the case of isonicotinic acid-2-[2-(benzylcarbamoyl)-ethyl]-hydrazide, the compound was dissolved in acetone and diluted to the desired concentration with water.
The criterion for the evaluation of action was the percentual prevention of hatching in comparison with untreated eggs.

[2] = system: cabbage moth (Plutella maculipennis); assay: feed damage on sprayed potted mustard seedlings bearing eggs of the cabbage moth (Plutella maculipennis); format: in vivo; settings: vs untreated plants, 7 days
Source text: The compounds to be used according to the invention were used as aqueous solutions of the salts or as aqueous emulsions of the bases formulated as emulsion concentrates at the desired concentration. The same procedure was followed for the comparison agents trans-2-phenylcyclopropyl aminosulfate and 1-isonicotinyl-2-isopropyl hydrazine phosphate.
After the treatment the pots were set up in aerated glass cylinders for seven days.
The criterion for evaluation of the action was feed damage on the treated plants in comparison with the feed damage on untreated plants.

monoamino-oxidase = settings: generally known; cited from earlier work
[3] = acute oral toxicity, mouse; settings: in vivo, mouse p.o.
[4] = substance concentration 1.0 (head "(5)"), vs untreated eggs, 4 days, read-out: prevention of hatching
[5] = substance concentration 1.0%, vs untreated eggs, 4 days
[6] = read-out: prevention of batching
[7] = substance concentration 0.1 (head "(5)"), vs untreated eggs, 4 days, read-out: prevention of hatching
[8] = substance concentration 0.04 (head "(5)"), vs untreated eggs, 4 days, read-out: prevention of hatching
[9] = substance concentration 0.1%, vs untreated eggs, 4 days

Q: For `CC(C)NNC(=O)c1ccncc1` [1-isonicotinyl-2-isopropylhydrazine phosphate, reference compound], which inhibition at 1 % [1, 4] is on record?
A: The inhibition at 1 % was 0%.

Q: And the inhibition at 1 % (cabbage moth eggs; [5])?
A: The inhibition at 1 % was 0%.

Q: And the feed damage ([2]; substance concentration 0.1%)?
A: Its feed damage is 100%.

Q: What about the inhibition of monoamino-oxidase (monoamino-oxidase) of the same molecule?
A: Its inhibition of monoamino-oxidase is “inhibitors of monoamino-oxidase”.

Q: With `N[C@@H]1C[C@H]1c1ccccc1.O=S(=O)(O)O` (relative stereo) [trans-2-Phenylcyclopropyl aminosulfate, trans-2-phenylcyclopropylamine sulfate, reference compound] as the molecule, how does the inhibition at 1 % [1, 6] read?
A: Its inhibition at 1 % is 0%.

Q: What about the inhibition at 1 % (cabbage moth eggs) of the same molecule?
A: The inhibition at 1 % was 0%.

Q: What about the feed damage ([2]; substance concentration 0.1%) of the same molecule?
A: The feed damage was 100%.

Q: And the inhibition of monoamino-oxidase (monoamino-oxidase)?
A: Its inhibition of monoamino-oxidase is “inhibitors of monoamino-oxidase”.

Q: For `C#CCN(C)Cc1ccc(Cl)cc1` [Compound 2, 4-Chlorobenzyl-methyl-2-propinyl ammonium chloride], which inhibition at 0.1 % [1, 7] is on record?
A: Its inhibition at 0.1 % is 100%.

Q: Which inhibition at 1 % [1, 4] does the source give for `O=C(CCNNC(=O)c1ccncc1)NCc1ccccc1` [Isonicotinic acid-2-[2-(benzylcarbamoyl)-ethyl]-hydrazide, reference compound] here?
A: Its inhibition at 1 % is 0%.

Q: What about the inhibition at 1 % (cabbage moth eggs; [5]) of the same molecule?
A: Its inhibition at 1 % is 0%.

Q: And the inhibition of monoamino-oxidase (monoamino-oxidase)?
A: The inhibition of monoamino-oxidase was “inhibitors of monoamino-oxidase”.

Q: Which inhibition at 0.08 % (cabbage moth eggs; substance concentration 0.08%, vs untreated eggs, 4 days) does the source give for `C#CCN(C)Cc1ccc(Cl)c(Cl)c1` [Compound 14, 3,4-Dichlorobenzyl-methyl-2-propinyl-ammonium chloride] here?
A: The inhibition at 0.08 % was 100%.

Q: And the feed damage ([2]; substance concentration 0.05%)?
A: Its feed damage is 0%.

Q: Which inhibition at 0.1 % [1, 6] does the source give for `C#CCN(C)Cc1ccccc1` [Compound 9, Benzyl-methyl-2-propinyl-ammonium-chloride] here?
A: The inhibition at 0.1 % was 100%.

Q: With `C#CCN(C)Cc1cccc(OC)c1` [Compound 8, N-(3-methoxybenzyl)-N-methyl-2-propinylamine] as the molecule, how does the inhibition at 0.1 % [1, 7] read?
A: Its inhibition at 0.1 % is 100%.

Q: For `C#CCN(C)Cc1cccc(OC)c1` [Compound 13, 3-Methoxybenzyl-methyl-2-propinyl-ammonium chloride], which inhibition at 0.04 % [1, 8] is on record?
A: The inhibition at 0.04 % was 70%.

Q: What does the source list for `C#CCN(C)Cc1ccccc1Cl` [Compound 4, N-(2-chlorobenzyl)-N-methyl-2-propinylamine]?
A: inhibition at 0.1 % [1, 7]: 100%; LD50 [3]: 305 mg/kg

Q: Which inhibition at 0.1 % [1, 7] does the source give for `C#CCN(C)Cc1ccc(Cl)cc1Cl` [Compound 12, 2,4-Dichlorobenzyl-methyl-2-propinyl-ammonium chloride] here?
A: The inhibition at 0.1 % was 100%.

Q: With `C#CCN(C)Cc1ccccc1Cl` [Compound 10, 2-Chlorobenzyl-methyl-2-propinyl-ammonium chloride] as the molecule, how does the inhibition at 0.04 % [1, 8] read?
A: The inhibition at 0.04 % was 80%.

Q: What about the inhibition at 0.1 % (cabbage moth eggs; [9]) of the same molecule?
A: Its inhibition at 0.1 % is 100%.

Q: With `C#CCN(C)Cc1ccc(Cl)c(Cl)c1` [Compound 6, N-(3,4-dichlorobenzyl)-N-methyl-2-propinylamine] as the molecule, how does the inhibition at 0.04 % [1, 8] read?
A: The inhibition at 0.04 % was 100%.

Q: For `C#CCN(C)Cc1ccc(Cl)cc1` [Compound 1, N-(4-chlorobenzyl)-N-methyl-2-propinylamine], which inhibition at 0.02 % ([1]; substance concentration 0.02 (head "(5)"), vs untreated eggs, 4 days) is on record?
A: Its inhibition at 0.02 % is 100%.

Q: What about the inhibition at 0.06 % (cabbage moth eggs; substance concentration 0.06%, vs untreated eggs, 4 days) of the same molecule?
A: The inhibition at 0.06 % was 100%.

Q: What about the feed damage ([2]; substance concentration 0.05%) of the same molecule?
A: The feed damage was 0%.

Q: What does the source list for `C#CCN(C)Cc1ccc(Cl)cc1Cl` [Compound 7, N-(2,4-dichlorobenzyl)-N-methyl-2-propinylamine]?
A: inhibition at 0.04 % [1, 8]: 100%; inhibition at 0.1 % (cabbage moth eggs; [9]): 100%

Q: Which inhibition at 0.1 % [1, 7] does the source give for `C#CCN(C)Cc1cccc(Cl)c1` [Compound 5, N-(3-chlorobenzyl)-N-methyl-2-propinylamine] here?
A: The inhibition at 0.1 % was 100%.

Q: Which inhibition at 0.04 % [1, 6] does the source give for `C#CCN(C)Cc1ccccc1` [Compound 3, N-Benzyl-N-methyl-2-propinylamine] here?
A: Its inhibition at 0.04 % is 100%.

Q: And the inhibition at 0.1 % (cabbage moth eggs)?
A: Its inhibition at 0.1 % is 100%.

Q: What about the feed damage ([2]; substance concentration 0.05%) of the same molecule?
A: The feed damage was 0%.

Q: What about the LD50 [3] of the same molecule?
A: Its LD50 is 700 mg/kg.

Q: What about the inhibition of monoamino-oxidase (monoamino-oxidase) of the same molecule?
A: Its inhibition of monoamino-oxidase is “inhibitors of monoamino-oxidase”.
